Measured values: PMC6410202, “Dual Action of the PN159/KLAL/MAP Peptide: Increase of Drug Penetration across Caco-2 Intestinal Barrier Model by Modulation of Tight Junctions and Plasma Membrane Permeability” (Pharmaceutics, 2019)

Assays:
[1] = system: Caco-2 cells; assay: Cellular uptake of Bodipy FL labeled PN159, confocal microscopy; format: cell-based, human; settings: Bodipy FL labeled PN159, 10 µM, 5 min, claudin-4 immunostaining
Protocol: The Caco-2 cells were grown on glass bottomed petri dishes coated with collagen to visualize the cellular uptake of the Bodipy FL maleimide labeled (BODIPY FL N-(2-aminoethyl) maleimide, Thermo Fischer, Waltham, MA, USA) PN159 peptide. The cells were treated with peptide at concentrations of 1, 3 and 10 µM for 5 min. To stain the cell nuclei the H33342dye (1 μg/mL) was used before peptide treatment for 10 min. After peptide incubation the living cells were washed three times with Ringer–Hepes buffer supplemented with 1%fetal bovine serum (FBS) and examined immediately with a Visitron spinning disk confocal system.
In the case of the co-localization analysis the labeled PN159 peptide was used in 10 µM for 5 min. Then the cellular uptake cells were fixed and immunohistochemistry was performed for claudin-4. The samples were mounted and visualized by a Leica TCS SP5 confocal laser-scanning microscope.

[2] = system: Caco-2 cells; assay: Immunostaining of junctional proteins and F-actin; format: cell-based, human; settings: 1 h
Protocol: Morphological changes in interepithelial junctions after treatment with different concentrations of CPPs (100 μM) and PN159 peptide (1, 3, 10, 30 and 100 μM) were followed by immunostaining for claudin-1 integral membrane tight junction protein, β-catenin and zonula occludens protein-1 (ZO-1) cytoplasmic linker proteins. F-actin was stained by fluorescently labeled phalloidin. Treatments lasted for 1 h. After peptide treatment cell layers were washed with PBS and fixed with a 1:1 mixture of ice cold acetone and methanol for 2 min. Cells were blocked with 3% bovine serum albumin in PBS and incubated with primary antibodies mouse anti-claudin-1 and -4, rabbit anti-ZO-1 and rabbit anti-β-catenin (Life Technologies, Carlsbad, CA, USA) overnight. Fluorescent Atto 647N-phalloidin (ATTO-TEC GmbH, Germany) lasted for 1 h. Incubation with Alexa Fluor-488-labeled anti-mouse and anti-rabbit secondary antibodies (Life Technologies, Invitrogen, USA) lasted for 1 h. Bis-benzimide dye (Hoechst 33342) was used to stain cell nuclei. After mounting (Fluoromount-G; Southern Biotech, Birmingham, AL, USA) the samples staining was visualized by a Leica TCS SP5 confocal laser scanning microscope (Leica Microsystems GmbH, Wetzlar, Germany) and Visitron spinning disk confocal system (Visitron Systems GmbH, Puchheim, Germany).

[3] = system: Caco-2 cell layers; assay: Penetration of marker and drug molecules across Caco-2 cell layers (Papp A-B); settings: PN159 10 and 30 μM, 1-h treatment
Protocol: In the permeability experiments inserts with Caco-2 cell layers grown for 3 weeks were transferred to 12-well plates containing 1.5 mL Ringer–Hepes buffer in the lower (basal or acceptor) compartments. In the upper or apical compartments culture medium was replaced by 0.5 mL buffer containing peptide solutions: PN159 peptide at 1, 3, 10 and 30 μM concentrations and CPPs at 100 μM concentration. […] The incubation with permeability markers in the presence of PN159 peptide lasted for 30 min. In case of CPPs the incubation time with fluorescein was 1-h. Samples were collected from both compartments and the concentrations of the marker molecules were determined by a fluorescence multi-well plate reader (Fluostar Optima; excitation wavelength: 485 nm, emission wavelength: 535 nm in the case of fluorescein and excitation wavelength: 584 nm, emission wavelength: 680 nm in the case of Evans-blue labeled albumin). Fluorescein isothiocyanate (FITC)-labelled dextran marker molecules (Table 1) were used at 1 mM concentrations, and fluorescence intensities of collected samples were measured using a Fluorolog FL3-22 (Horiba Jobin Yvon, Paris, France) spectrofluorometer using 492 nm excitation wavelength, 515 nm emission wavelength, and 0.5 s integration time. Drugs were used at 10 μM concentrations and samples were measured by HPLC as described below. The apparent permeability coefficients (Papp) were calculated as described previously. Briefly, cleared volume was calculated from the concentration difference of the tracer in the basal compartments (Δ[C]B) after 30 min and apical compartments at 0 h ([C]A), the volume of the basal compartment (VB; 1.5 mL) and the surface area available for permeability (A; 1.1 cm^2).
Analytical measurements were performed on a Merck-Hitachi LaChrom HPLC system equipped with an ultraviolet (UV) and fluorescence detector (Merck, Darmstadt, Germany). All reagents used were of analytical reagent grade. […] In both cases 10μL sample was injected into the chromatographic system.
The chromatographic column was maintained at 40 °C and the 5 μL sample was injected onto the column.
The column temperature was maintained at 40 °C and a 20 μL sample was injected onto the chromatographic system. […] UV detection was set at 228 nm.

[4] = system: Caco-2 cell layers; assay: Transepithelial electrical resistance (TEER) of Caco-2 cell layers; format: cell-based, human; settings: for TEER, % of the control value: PN159 10 μM
Protocol: For the measurement of barrier integrity Caco-2 cells were seeded onto culture inserts (Transwell 3460, polyester membrane, 0.4 µm pore size, Corning Costar) and cultured for three weeks. Transepithelial electrical resistance (TEER) reflects the tightness of the intercellular junctions. […]. Resistance of cell-free inserts (130 Ω × cm^2) was subtracted from the measured values. TEER values were measured before and right after permeability experiments). TEER values indicated the integrity and paracellular permeability of cell layers for ions. The TEER of Caco-2 monolayers was 1302 ± 49 Ω × cm^2 (mean ± SD; n = 46) after 3 weeks culturing. For the recovery experiment, after changing the 10 μM peptide solutions to culture medium, TEER was monitored for one day.

[5] = system: respiratory epithelial tissue (EpiAirway model); design: method as in PMID 16625659; settings: 1-h treatment; cited from earlier work
[6] = system: Pseudomonas aeruginosa (ATCC 27853); assay: microbe, parasite or virus in culture; settings: Muller–Hinton broth, 18 h
Protocol: (§1) The MIC of PN159 on the 6 sensitive and resistant ESKAPE pathogenic strains was determined in cation-adjusted Muller–Hinton broth. […] Minimum inhibitory concentrations (MICs) were determined by using a standard serial broth dilution technique. Briefly, 11-step serial dilutions were prepared in 96-well microtiter plates with three biological replicates per strain. Pathogens were inoculated into each well at a density of 5×10^5 bacteria/mL, and the plates were incubated at 37 °C. Plates were shaken at 300 rpm during incubation for 18 h. Cell growth was monitored by measuring the optical density (OD600 value, Synergy 2 microplate reader BioTek Instruments Inc, Winooski, VT, USA). […] As reference compounds we tested the antimicrobial activity of three bactericidal drugs with different modes of action.

[7] = system: Enterobacter cloacae spp. cloacae (ATCC 13047); assay: microbe, parasite or virus in culture; settings: Muller–Hinton broth, 18 h
Protocol: as §1

For CC(C)C[C@H](NC(=O)[C@H](C)NC(=O)[C@H](CCCCN)NC(=O)[C@H](CC(C)C)NC(=O)[C@H](C)NC(=O)[C@H](CC(C)C)NC(=O)[C@H](CCCCN)NC(=O)[C@H](CC(C)C)NC(=O)[C@H](C)NC(=O)[C@H](CC(C)C)NC(=O)[C@@H](N)CCCCN)C(=O)N[C@@H](CCCCN)C(=O)N[C@@H](C)C(=O)N[C@@H](C)C(=O)N[C@@H](CC(C)C)C(=O)N[C@@H](CCCCN)C(=O)N[C@@H](CC(C)C)C(=O)N[C@@H](C)C(N)=O [PN159], the “Co-localization with claudin-4” value [1] was “visible in the cytoplasm and also in the cell membrane at the level of intercellular junctions”, the “Junctional and cell morphology (claudin-1, ZO-1, β-catenin, F-actin)” value ([2]; PN159 1 μM) was “slight effect on cell morphology” and the “Junctional and cell morphology (claudin-1, ZO-1, β-catenin, F-actin)” value ([2]; PN159 10 μM) was “drastic change in actin cytoskeleton and epithelial junctional morphology”. For the same molecule, the “Permeability enhancement for fluorescein and albumin” value [3] was “most effective permeability enhancer activity”, the TEER recovery ([4]; 20 h after removal of PN159 (10 μM, 30 min)) was “complete recovery” and the “TEER, % of the control value” ([4]; 1-min treatment) was 42%. The “TEER, % of the control value” ([4]; 5 min) was 16%, the “TEER, % of the control value” ([4]; 15 min) was 2.7% and the “TEER, % of the control value” ([4]; 30 min) was 1.4%. The “Decrease in TEER” value ([4]; PN159 10 and 30 μM, 1-h treatment) was 80–90%, the “Resistance of epithelial cell layers (TEER)” value ([4]; all tested concentrations (1, 3, 10, 30 μM), 1-h treatment) was “significantly decreased the resistance” and the “Safe concentration (MTT)” value [5] was “up to 100 μM”. It also gave an MIC [6] of 46.4 µM and an MIC [7] of 31.0 µM.
